Laboratory results reported in patent US20220347139A1, “METHOD OF TREATMENT VIA INTRA-ARTICULAR APPLICATION OF POTASSIUM” (Rensselaer Polytechnic Institute, priority 2018, published 2022).
“Also recorded” adds a separate entry of the source.

How the values were obtained:
[1] = test system: Raw 264.7 murine macrophages; experiment: IFN-stimulated macrophages in PEGDA hydrogels, in vitro mimic of intra-articular injection; format: cell-based
Protocol: Referring now to FIG. 5A, an in vitro experiment was designed to mimic an intra-articular injection of potassium osmolytes consistent with the embodiments described above. Poly(ethylene glycol) diacrylate hydrogels encapsulated with proinflammatory interferon-gamma (IFN)-stimulated macrophages (M(IFN)s) were prepared. M(IFN)s were cultured for 5 days in the continued presence of IFN, with 80 mM K+ applied only during the first day and then removed. Other IA injection formulations—human mesenchymal stem cells (MSCs) and methylprednisolone acetate (MPA)—were also included to gain a sense of efficacy and benchmark against current OA treatments.
The PEGDA hydrogel (˜50 kPa stiffness) was provided at the bottom of the culture well to create a surface that more closely matches the stiffness of articular cartilage (aggregate modulus ˜500 kPa) than traditional plastic 2D surfaces (˜1×10^6 kPa). MSC behavior is known to respond to substrate stiffness. Assessments for treatment efficacy included cell lysate levels of several proinflammatory markers, anti-inflammatory markers, and the ratio between anti/proinflammatory profiles.
(§1) Raw 264.7 murine macrophages (a cell line) were thawed and expanded in regular growth medium: high-glucose Dulbecco's modified Eagle's medium (DMEM; Corning) supplemented with 10% fetal bovine serum (FBS; Hyclone, Atlanta Biologicals, Inc.). Primary human OACs (Cell Applications, Inc.) were expanded in chondrogenic growth media for four passages, transitioned into regular growth medium for 1 passage, and utilized at passage 5.
Aliquots ([…]; 1×10^6 cells per construct) of the cell/polymer suspension were dispensed into the wells of a 48-well plate (Corning) and cured by exposure to long-wave UV light (˜10 mW/cm^2) for 6 min. […]
Referring now to FIGS. 5B and 5C, relative protein production of proinflammatory and anti-inflammatory molecules and the ratio between anti/proinflammatory profiles in Raw 264.7 macrophages were determined after 5 days in culture. […]

Primary human OACs = experiment: Inflammatory protein production in osteoarthritic chondrocytes after short-term K+ treatment; format: cell-based
From the text: as §1
Referring now to FIGS. 5B and 5C, relative protein production of proinflammatory and anti-inflammatory molecules and the ratio between anti/proinflammatory profiles in Raw 264.7 macrophages were determined after 5 days in culture. “*” denotes a significant difference relative to IFN controls. “#” denotes a significant difference relative to 24-h 80 mM K^+ gluconate. “+” denotes a significant difference relative to 24-h MSCs.

O=C([O-])[C@H](O)[C@@H](O)[C@H](O)[C@H](O)CO.[K+] [K+ gluconate, potassium gluconate] was tested, and the “anti/proinflammatory cytokine ratio (relative protein production)” value ([1]; 80 mM K+ applied during the first day only, 5 days in culture in continued presence of IFN, relative to IFN controls) was “significantly enhanced”, the macrophage polarization ([1]; 80 mM, M(IFN)s) was “toward an anti-inflammatory/proresolving phenotype” and the “anti/proinflammatory profile, 40 mM versus 80 mM treatment” value ([1]; comparison between 40 and 80-mM treatments) was “not significantly different”. For the same compound, the IL-8 production (Primary human OACs) was “extended benefit”, the MCP-1 production (Primary human OACs) was “extended benefit” and the MMP-13 production (Primary human OACs; listed as K^+) was “extended benefit; also recorded: reduced production”.
